# Laboratory results: PMC11984407, “A natural small molecule isoginkgetin alleviates hypercholesterolemia and atherosclerosis by targeting ACLY” (Theranostics, 2025)
# Columns and labels:
# HepG2 cell line = test: CCK8 cell viability, HepG2; assay type: cell-based; settings: concentrations below 7.5 μmol/L, 12 h
# Experimental: The cellular viability was assessed by conducting CCK8 assays in primary hepatocytes from C57BL/6J mouse and HepG2 cell line. Specifically, 2,000 cells per well were plated in 96-well plates and cultured with different concentrations of ISOGK for 12 h. Following this, cell absorption was quantified using a CCK8 kit (CA1210, Solarbio, Beijing, China), adhering strictly to the manufacturer's guidelines. The presented data represents the findings from three independent experiments, with each experiment consisting of four replicates.
# Ldlr-/- hamsters = test: High cholesterol diet-fed Ldlr-/- hamsters; assay type: in vivo, hamster
# Experimental: Syrian golden hamsters with a deficiency in the low-density lipoprotein receptor (Ldlr) gene were generated using the clustered regularly interspaced short palindromic repeats (CRISPR) and CRISPR-associated protein 9 (Cas9) gene editing system, as previously described. Male Ldlr^-/- hamsters at 8-week-old were randomly divided into three groups. The animals were administered with vehicle, ISOGK (2 mg/kg/day), or ISOGK (5 mg/kg/day) for a period of four weeks. The hamsters were maintained on a 14-h light/10-h dark cycle at 24 °C and were fed a 1.25% high cholesterol diet. Unless otherwise stated, the hamsters were fasted for 12 h prior to euthanasia. All experiments were conducted in accordance with the principles of experimental animal care (NIH publication no. 85-23, revised 1996) and were approved by the Animal Care and Use Committee of Peking University (approval number LA2022-147).
# Plasma levels of TC, TG, LDL-C, and high-density lipoprotein cholesterol (HDL-C) were determined following the manufacturer's instructions. Liver tissues (30-40 mg) were homogenized in 0.5 mL of cold PBS for hepatic TG and cholesterol measurement. A 0.4 mL homogenate was combined with 1.4 mL of a CHCl3/CH3OH mixture (2:1, v/v) and shaken overnight at room temperature. Following centrifugation at 2,500 × g for a period of 10 min, the organic phase was meticulously transferred and permitted to air-dry. The residual organic material was then reconstituted in 800 μL of ethanol containing 1% Triton X-100, whereby the ethanol served to solubilize the material.
# AMPK = test: Western blot of p-AMPK in AML12 and HepG2 cells; assay type: cell-based; settings: 5 µM, 12 h after 50 µM palmitic acid
# Experimental: Western blotting was performed as previously described. In brief, whole-cell lysates from cultured cells and animal tissue were prepared using 1× sample buffer, followed by boiling at 95 °C for 10 min. Subsequently, SDS-PAGE was employed to separate the samples, which were then transferred onto a nitrocellulose membrane (Pall, NY, USA). Subsequently, the membrane was incubated in a blocking buffer for one h at room temperature. Following the removal of the blocking buffer, the blots were incubated with primary antibodies (1:1,000 dilution) at 4 °C overnight. The membrane was washed thrice for 10 min each, using 1× Tris-buffered saline with 0.1% Tween-20 (TBST). Subsequently, the membranes were incubated with IRDye® 680RD Goat anti-Mouse IgG (H + L) or IRDye® 800CW Goat anti-Rabbit IgG (H + L) (1:10,000 dilution, LI-COR, Lincoln, Nebraska, USA) at room temperature for 1 h. Visualization of the blots was carried out using the Li-COR CLx infrared imaging system. GAPDH (60004-1-Ig, Proteintech, Chicago, IL, USA), ACLY (67166-1-Ig, Proteintech, Chicago, IL, USA), LDLR (10785-1-AP, Proteintech, Chicago, IL, USA), β-Actin (66009-1-Ig, Proteintech, Chicago, IL, USA), AMPK (10929-2-AP, Proteintech, Chicago, IL, USA), p-AMPK^T172 (2535, Cell Signaling Technology, Danvers, MA, USA).
smiles,measurement,setting,value
"COc1ccc(-c2cc(=O)c3c(O)cc(O)c(-c4cc(-c5cc(=O)c6c(O)cc(O)cc6o5)ccc4OC)c3o2)cc1 [ISOGK, Isoginkgetin]",cytotoxicity (CCK-8),HepG2 cell line,no significant cytotoxicity
same,lipid accumulation in aortic sinus (Oil Red O),Ldlr-/- hamsters,significantly reduced lipid accumulation
same,lipid accumulation in liver tissues (Nile Red),Ldlr-/- hamsters,significantly reduced lipid accumulation
same,reduction in hepatic TC vs vehicle,Ldlr-/- hamsters; 2 mg/kg/day i.p.,25.89%
same,reduction in hepatic TC vs vehicle,Ldlr-/- hamsters; 5 mg/kg/day i.p.,35.75%
same,decrease in serum TG levels (Figure 5B),Ldlr-/- hamsters; high dose 5 mg/kg/day,61.32%
same,decrease in serum non-HDL-C,Ldlr-/- hamsters; high dose 5 mg/kg/day,51.76%
same,reduction in serum TC (Figure 5C),Ldlr-/- hamsters; high dose 5 mg/kg/day,52.15%
same,reduction in serum TG (Figure 5C),Ldlr-/- hamsters; high dose 5 mg/kg/day,51.38%
same,reduction of aortic plaque area (Oil Red O) vs vehicle,Ldlr-/- hamsters; high-dose 5 mg/kg/day,29.85%
same,serum HDL-C levels,Ldlr-/- hamsters; low and high doses,without affecting HDL-C levels
same,decrease in serum TG levels (Figure 5B),Ldlr-/- hamsters; low dose 2 mg/kg/day,47.57%
same,decrease in serum non-HDL-C,Ldlr-/- hamsters; low dose 2 mg/kg/day,28.16%
same,reduction in serum TC (Figure 5C),Ldlr-/- hamsters; low dose 2 mg/kg/day,28.72%
same,reduction in serum TG (Figure 5C),Ldlr-/- hamsters; low dose 2 mg/kg/day,47.99%
same,reduction of aortic plaque area (Oil Red O) vs vehicle,Ldlr-/- hamsters; low-dose 2 mg/kg/day,21.74%
same,p-AMPK protein expression,AMPK,activate AMPK
